Measurements taken from the NIST ThermoML archive (doi:10.1021/acs.jced.5b00934).
± gives the expanded uncertainty stated by the source.

Conditions: Liquid, Vibrating tube method

CC(C)(C)O [2-methylpropan-2-ol]
Conditions	mass density [kg/m3]
333.15 K, 50000 kPa	788.7 ± 0.9
333.15 K, 52050 kPa	790.2 ± 0.9
333.15 K, 55010 kPa	792.3 ± 1
333.15 K, 57996 kPa	794.3 ± 1
333.15 K, 60003 kPa	795.6 ± 1
338.15 K, 100 kPa	737.1 ± 0.8
338.15 K, 309 kPa	737.3 ± 0.8
338.15 K, 505 kPa	737.6 ± 0.8
338.15 K, 898 kPa	738.1 ± 0.8
338.15 K, 1003 kPa	738.2 ± 0.8
338.15 K, 2001 kPa	739.5 ± 0.8
338.15 K, 3005 kPa	740.8 ± 0.8
338.15 K, 5003 kPa	743.2 ± 0.8
338.15 K, 7014 kPa	745.6 ± 0.8
338.15 K, 9004 kPa	747.9 ± 0.8
338.15 K, 10002 kPa	749 ± 0.8
338.15 K, 11998 kPa	751.2 ± 0.8
338.15 K, 14999 kPa	754.4 ± 0.8
338.15 K, 17997 kPa	757.5 ± 0.8
338.15 K, 20007 kPa	759.4 ± 0.9
338.15 K, 21999 kPa	761.4 ± 0.9
338.15 K, 25000 kPa	764.2 ± 0.9
338.15 K, 27994 kPa	766.9 ± 0.9
338.15 K, 30011 kPa	768.6 ± 0.9
338.15 K, 32005 kPa	770.4 ± 0.9
338.15 K, 32998 kPa	771.2 ± 0.9
338.15 K, 33033 kPa	771.2 ± 0.9
338.15 K, 34007 kPa	772 ± 0.9
338.15 K, 35000 kPa	772.9 ± 0.9
338.15 K, 38031 kPa	775.3 ± 0.9
338.15 K, 40024 kPa	776.9 ± 0.9
338.15 K, 41998 kPa	778.5 ± 0.9
338.15 K, 43195 kPa	779.4 ± 0.9
338.15 K, 44574 kPa	780.4 ± 0.9
338.15 K, 46152 kPa	781.6 ± 0.9
338.15 K, 48333 kPa	783.3 ± 0.9
338.15 K, 50050 kPa	784.5 ± 0.9
338.15 K, 52462 kPa	786.3 ± 1
338.15 K, 56690 kPa	789.2 ± 1
338.15 K, 60003 kPa	791.5 ± 1
343.15 K, 99 kPa	731 ± 0.8
343.15 K, 305 kPa	731.3 ± 0.8
343.15 K, 503 kPa	731.6 ± 0.8
343.15 K, 901 kPa	732.1 ± 0.8
343.15 K, 1002 kPa	732.2 ± 0.8
343.15 K, 2000 kPa	733.6 ± 0.8
343.15 K, 3001 kPa	734.9 ± 0.8
343.15 K, 5005 kPa	737.5 ± 0.8
343.15 K, 7004 kPa	740 ± 0.8
343.15 K, 9033 kPa	742.4 ± 0.8
343.15 K, 10020 kPa	743.6 ± 0.8
343.15 K, 12001 kPa	745.8 ± 0.8
343.15 K, 15002 kPa	749.1 ± 0.8
343.15 K, 18001 kPa	752.3 ± 0.9
343.15 K, 20018 kPa	754.4 ± 0.9
343.15 K, 21994 kPa	756.4 ± 0.9
343.15 K, 25026 kPa	759.3 ± 0.9
343.15 K, 27993 kPa	762.1 ± 0.9
343.15 K, 30004 kPa	763.9 ± 0.9
343.15 K, 32000 kPa	765.7 ± 0.9
343.15 K, 32963 kPa	766.6 ± 0.9
343.15 K, 33001 kPa	766.6 ± 0.9
343.15 K, 34002 kPa	767.5 ± 0.9
343.15 K, 35003 kPa	768.3 ± 0.9
343.15 K, 38027 kPa	770.8 ± 0.9
343.15 K, 39998 kPa	772.5 ± 0.9
343.15 K, 42000 kPa	774.1 ± 0.9
348.15 K, 98 kPa	725.1 ± 0.8
348.15 K, 295 kPa	725.3 ± 0.8
348.15 K, 498 kPa	725.7 ± 0.8
348.15 K, 898 kPa	726.2 ± 0.8
348.15 K, 1004 kPa	726.4 ± 0.8
348.15 K, 2006 kPa	727.8 ± 0.8
348.15 K, 3001 kPa	729.2 ± 0.8
348.15 K, 5005 kPa	731.9 ± 0.8
348.15 K, 6999 kPa	734.5 ± 0.8
348.15 K, 9012 kPa	737 ± 0.8
348.15 K, 10014 kPa	738.2 ± 0.8
348.15 K, 12003 kPa	740.6 ± 0.8
348.15 K, 14999 kPa	744 ± 0.8
348.15 K, 17999 kPa	747.3 ± 0.9
348.15 K, 20000 kPa	749.4 ± 0.9
348.15 K, 21998 kPa	751.5 ± 0.9
348.15 K, 24996 kPa	754.4 ± 0.9
348.15 K, 27995 kPa	757.3 ± 0.9
348.15 K, 30045 kPa	759.3 ± 0.9
348.15 K, 32000 kPa	761 ± 0.9
348.15 K, 32878 kPa	761.8 ± 0.9
348.15 K, 33012 kPa	761.9 ± 0.9
348.15 K, 34000 kPa	762.8 ± 0.9
348.15 K, 35001 kPa	763.7 ± 0.9
348.15 K, 38001 kPa	766.3 ± 0.9
348.15 K, 39999 kPa	768 ± 0.9
348.15 K, 41997 kPa	769.6 ± 0.9
348.15 K, 44999 kPa	772 ± 0.9
353.15 K, 99 kPa	719 ± 0.8
353.15 K, 300 kPa	719.3 ± 0.8
353.15 K, 501 kPa	719.6 ± 0.8
353.15 K, 897 kPa	720.2 ± 0.8
353.15 K, 1000 kPa	720.3 ± 0.8
353.15 K, 2000 kPa	721.8 ± 0.8
353.15 K, 2999 kPa	723.2 ± 0.8
353.15 K, 4999 kPa	726.1 ± 0.8
353.15 K, 6999 kPa	728.8 ± 0.8
353.15 K, 8998 kPa	731.4 ± 0.8
353.15 K, 10003 kPa	732.6 ± 0.8
353.15 K, 11997 kPa	735.1 ± 0.8
353.15 K, 15001 kPa	738.7 ± 0.8
353.15 K, 17999 kPa	742.1 ± 0.9
353.15 K, 20000 kPa	744.2 ± 0.9
353.15 K, 21999 kPa	746.4 ± 0.9
353.15 K, 24997 kPa	749.4 ± 0.9
353.15 K, 27999 kPa	752.5 ± 0.9
353.15 K, 30004 kPa	754.4 ± 0.9
353.15 K, 32003 kPa	756.3 ± 0.9
353.15 K, 32985 kPa	757.1 ± 0.9
353.15 K, 33002 kPa	757.2 ± 0.9
353.15 K, 34000 kPa	758.1 ± 0.9
353.15 K, 35004 kPa	759 ± 0.9
353.15 K, 38477 kPa	762.2 ± 0.9
353.15 K, 40002 kPa	763.4 ± 0.9
353.15 K, 42035 kPa	765.1 ± 0.9
353.15 K, 45022 kPa	767.6 ± 0.9
353.15 K, 48092 kPa	770.1 ± 1
353.15 K, 49989 kPa	771.5 ± 1
358.15 K, 103 kPa	712.8 ± 0.8
358.15 K, 293 kPa	713.1 ± 0.8
358.15 K, 498 kPa	713.4 ± 0.8
358.15 K, 899 kPa	714 ± 0.8
358.15 K, 1003 kPa	714.2 ± 0.8
358.15 K, 2008 kPa	715.7 ± 0.8
358.15 K, 3003 kPa	717.3 ± 0.8
358.15 K, 5003 kPa	720.2 ± 0.8
358.15 K, 7003 kPa	723 ± 0.8
358.15 K, 9001 kPa	725.8 ± 0.8
358.15 K, 9998 kPa	727.1 ± 0.8
358.15 K, 12010 kPa	729.7 ± 0.8
358.15 K, 14999 kPa	733.3 ± 0.8
358.15 K, 18040 kPa	736.9 ± 0.9
358.15 K, 19997 kPa	739.1 ± 0.9
358.15 K, 21995 kPa	741.3 ± 0.9
358.15 K, 25017 kPa	744.5 ± 0.9
358.15 K, 27994 kPa	747.6 ± 0.9
358.15 K, 29991 kPa	749.6 ± 0.9
358.15 K, 32001 kPa	751.5 ± 0.9
358.15 K, 32997 kPa	752.5 ± 0.9
358.15 K, 33015 kPa	752.5 ± 0.9
358.15 K, 34056 kPa	753.5 ± 0.9
358.15 K, 35075 kPa	754.4 ± 0.9
358.15 K, 37998 kPa	757 ± 0.9
358.15 K, 40001 kPa	758.8 ± 0.9
358.15 K, 42007 kPa	760.6 ± 0.9
358.15 K, 45002 kPa	763.1 ± 0.9
358.15 K, 47995 kPa	765.5 ± 1
358.15 K, 50001 kPa	767 ± 1
363.15 K, 299 kPa	706.4 ± 0.8
363.15 K, 502 kPa	706.8 ± 0.8
363.15 K, 901 kPa	707.4 ± 0.8
363.15 K, 1002 kPa	707.6 ± 0.8
363.15 K, 2001 kPa	709.2 ± 0.8
363.15 K, 3005 kPa	710.8 ± 0.8
363.15 K, 5002 kPa	713.9 ± 0.8
363.15 K, 7023 kPa	716.9 ± 0.8
363.15 K, 9001 kPa	719.7 ± 0.8
363.15 K, 10009 kPa	721.1 ± 0.8
363.15 K, 12038 kPa	723.8 ± 0.8
363.15 K, 14998 kPa	727.6 ± 0.8
363.15 K, 18000 kPa	731.3 ± 0.9
363.15 K, 20033 kPa	733.7 ± 0.9
363.15 K, 22005 kPa	735.9 ± 0.9
363.15 K, 25000 kPa	739.2 ± 0.9
363.15 K, 28009 kPa	742.4 ± 0.9
363.15 K, 30011 kPa	744.4 ± 0.9
363.15 K, 32033 kPa	746.5 ± 0.9
363.15 K, 32982 kPa	747.4 ± 0.9
363.15 K, 33012 kPa	747.4 ± 0.9
363.15 K, 34035 kPa	748.4 ± 0.9
363.15 K, 34999 kPa	749.3 ± 0.9
363.15 K, 37998 kPa	752.1 ± 0.9
363.15 K, 39147 kPa	753.2 ± 0.9
363.15 K, 40009 kPa	753.9 ± 0.9
363.15 K, 41998 kPa	755.7 ± 0.9
363.15 K, 44999 kPa	758.4 ± 0.9
363.15 K, 47996 kPa	760.9 ± 1
363.15 K, 49998 kPa	762.5 ± 1
363.15 K, 52002 kPa	764.2 ± 1
363.15 K, 55003 kPa	766.6 ± 1
363.15 K, 57998 kPa	768.9 ± 1
363.15 K, 59999 kPa	770.4 ± 1
363.16 K, 38458 kPa	752.5 ± 0.9
